Test results: patent publication US20240158446A1, “CYCLIC COMPOUND HAVING SELECTIVE INHIBITORY ACTION ON KRAS OVER HRAS AND NRAS” (CHUGAI SEIYAKU KABUSHIKI KAISHA, priority 2021, published 2024)
Where two headings read alike, the source gives them in different places. Where a SMILES comes first, the peptide text is derived from it. Bridges are numbered along the chain shown (N, C = ends). [ ]: non-standard residue; d: D form. The star is where a group is joined. hPhe(3-Cl-4-CF3) = N[C@@H](CCc1ccc(C(F)(F)F)c(Cl)c1)C(=O)O; NPrPhe(4-CF3) = CCCN[C@@H](Cc1ccc(C(F)(F)F)cc1)C(=O)O; NMeGly(cPent) = CN[C@H](C(=O)O)C1CCCC1; NMeD = CN[C@@H](CC(=O)O)C(=O)O; NMeL = CN[C@@H](CC(C)C)C(=O)O; Morpholide = C1CN(*)CCO1; Ac5c = NC1(C(=O)O)CCCC1; Abu = CC[C@H](N)C(=O)O; NEtG = CCNCC(=O)O; Sar = CNCC(=O)O

What was measured:
[1] = tested on: human lung cancer strain NCI-H441;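 note: cell proliferation inhibition after four days measured by CellTiter-Glo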
[2] = target: GDP-bound NRAS wild-type protein (Homo sapiens, UniProt P01111); test: Binding to NRAS by surface plasmon resonance (SPR), Single Cycle Kinetics; details: for NRAS/KRAS (ratio of KD value for NRAS to KD value for KRAS): GDP-bound NRAS wild-type protein vs GDP-bound KRAS wild-type protein; for NRAS/KRAS (ratio of KD value with respect to GDP-bound NRAS wild-type protein to KD value with respect to KRAS): SPR KD ratio NRAS/KRAS, class symbols
Chain of GDP-bound NRAS wild-type protein (P01111 whole entry): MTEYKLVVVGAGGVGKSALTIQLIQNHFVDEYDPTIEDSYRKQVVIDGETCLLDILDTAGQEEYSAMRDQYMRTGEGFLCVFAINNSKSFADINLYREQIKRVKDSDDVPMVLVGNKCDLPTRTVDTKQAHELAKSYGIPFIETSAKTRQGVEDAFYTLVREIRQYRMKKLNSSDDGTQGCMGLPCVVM

[3] = target: GDP-bound KRAS wild-type protein (Homo sapiens, UniProt P01116); test: Binding to KRAS by surface plasmon resonance (SPR), Single Cycle Kinetics
Chain of GDP-bound KRAS wild-type protein (P01116 whole entry): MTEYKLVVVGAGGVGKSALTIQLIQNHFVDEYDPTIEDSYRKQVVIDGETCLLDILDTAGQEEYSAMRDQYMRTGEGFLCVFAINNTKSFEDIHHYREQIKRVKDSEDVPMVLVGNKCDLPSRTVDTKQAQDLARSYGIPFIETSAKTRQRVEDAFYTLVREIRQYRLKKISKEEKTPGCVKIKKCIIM

[4] = target: GDP-bound HRAS wild-type protein (Homo sapiens, UniProt P01112); test: Binding to HRAS by surface plasmon resonance (SPR), Single Cycle Kinetics; details: for HRAS/KRAS (ratio of KD value for HRAS to KD value for KRAS): GDP-bound HRAS wild-type protein vs GDP-bound KRAS wild-type protein; for HRAS/KRAS (ratio of KD value with respect to GDP-bound HRAS wild-type protein to KD value with respect to KRAS): SPR KD ratio HRAS/KRAS, class symbols
Chain of GDP-bound HRAS wild-type protein (P01112 whole entry): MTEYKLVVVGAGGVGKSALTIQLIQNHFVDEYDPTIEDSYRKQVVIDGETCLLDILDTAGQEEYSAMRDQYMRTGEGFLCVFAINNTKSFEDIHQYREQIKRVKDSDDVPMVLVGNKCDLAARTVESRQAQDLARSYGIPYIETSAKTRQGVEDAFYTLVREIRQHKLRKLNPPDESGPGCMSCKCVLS

[5] = SPR, Single Cycle Kinetics, 1:1 binding model, GDP-bound KRAS wild-type protein, read-out: KRAS KD
[6] = SPR, Single Cycle Kinetics, GDP-bound KRAS wild-type protein, read-out: KRAS KD
[7] = SPR Single Cycle Kinetics, GDP-bound KRAS wild-type protein, 1:1 binding model, read-out: KRAS KD

Structure (SMILES)	IC50 [1] [nM]	NRAS/KRAS (ratio of KD value for NRAS to KD value for KRAS) ([2]; SPR, KD ratio class)	Kd [3, 5] [nM]	HRAS/KRAS (ratio of KD value for HRAS to KD value for KRAS) ([4]; SPR, KD ratio class)	NRAS/KRAS (ratio of KD value for NRAS to KD value for KRAS) ([2]; SPR)	Kd [3, 6] [nM]	HRAS/KRAS (ratio of KD value for HRAS to KD value for KRAS) ([4]; SPR)	further results
CCC[C@H]1C(=O)N[C@@H]([C@@H](C)CC)C(=O)N(C)CC(=O)N(C)[C@H]2C/C=C\CCN(C2=O)[C@@H](Cc2ccc(C(F)(F)F)cc2)C(=O)N(C)CC(=O)N[C@@H](CCc2cc(F)c(C(F)(F)F)c(F)c2)C(=O)N2C[C@H](OCC)C[C@H]2C(=O)NC2(CCC2)C(=O)N(C)[C@@H](C2CCCC2)C(=O)N(C)[C@H](C(=O)N2CCOCC2)CC(=O)N1C [PP1288]	22.2	AA (a compound having 20 or more is denoted as AA)	0.18	A (a compound having 10 or more and less than 20 is denoted as A)				
CCC[C@H]1C(=O)N[C@@H]([C@@H](C)CC)C(=O)N(C2CC2)CC(=O)N(C)[C@H]2C/C=C\CCN(C2=O)[C@@H](Cc2ccc(C(F)(F)F)cc2)C(=O)N(C)CC(=O)N[C@@H](CCc2ccc(C(F)(F)F)c(OC)c2)C(=O)N2C[C@H](OCC)C[C@H]2C(=O)N(C)C2(CCC2)C(=O)N(C)[C@@H](C2CCCC2)C(=O)N(C)[C@H](C(=O)N2CCCC2)CC(=O)N1C [PP3097]					A (a compound having 10 or more and less than 20 is denoted as A)	0.38	A (a compound having 10 or more and less than 20 is denoted as A)	IC50 ([1]; read-out: NCI-H441 cell proliferation inhibitory activity, 50% proliferation inhibitory concentration (IC50 value), NCI-H441, four days, CellTiter-Glo): 5.4 nM; ratio of the KD value with respect to GDP-bound NRAS wild-type protein to the KD value with respect to KRAS ([2]; SPR, KD(NRAS)/KD(KRAS)): A (a compound having 10 or more and less than 20 is denoted as A); Kd ([3]; SPR, Single Cycle Kinetics, 1:1 binding model, read-out: KD value with respect to GDP-bound KRAS wild-type protein): 0.38 nM; ratio of the KD value with respect to GDP-bound HRAS wild-type protein to the KD value with respect to KRAS ([4]; SPR, KD(HRAS)/KD(KRAS)): A (a compound having 10 or more and less than 20 is denoted as A)
CCC[C@H]1C(=O)N[C@@H](CC(C)C)C(=O)N(CCOC)CC(=O)N(C)[C@H]2C/C=C\CCN(C2=O)[C@@H](Cc2ccc(C)cc2)C(=O)N(C)CC(=O)N[C@@H](CCc2cc(F)c(C(F)(F)F)c(F)c2)C(=O)N2C[C@H](OCC)C[C@H]2C(=O)NC2(CCC2)C(=O)N(C)[C@@H](C2CCCC2)C(=O)N(C)[C@H](C(=O)N(C)C)CC(=O)N1C [PP2541]	374							NRAS/KRAS (ratio of KD value with respect to GDP-bound NRAS wild-type protein to KD value with respect to KRAS) [2]: A (a compound having 10 or more and less than 20 is denoted as A); Kd [3, 7]: 4.9 nM; HRAS/KRAS (ratio of KD value with respect to GDP-bound HRAS wild-type protein to KD value with respect to KRAS) [4]: B (a compound having 3 or more and less than 10 is denoted as B)
CCC[C@H]1C(=O)N[C@@H](CC(C)C)C(=O)N2C[C@@H](OC)C[C@H]2C(=O)N(C)[C@H]2C/C=C\CCN(C2=O)[C@@H](Cc2ccc(C)cc2)C(=O)N(C)CC(=O)N[C@@H](CCc2cc(F)c(C(F)(F)F)c(F)c2)C(=O)N2C[C@H](OCC)C[C@H]2C(=O)NC2(CC(C)(C)C2)C(=O)N(C)[C@@H](C2CCCC2)C(=O)N(C)[C@H](C(=O)N(C)C)CC(=O)N1C [PP2553]	121							NRAS/KRAS (ratio of KD value with respect to GDP-bound NRAS wild-type protein to KD value with respect to KRAS) [2]: A (a compound having 10 or more and less than 20 is denoted as A); Kd [3, 7]: 3.4 nM; HRAS/KRAS (ratio of KD value with respect to GDP-bound HRAS wild-type protein to KD value with respect to KRAS) [4]: B (a compound having 3 or more and less than 10 is denoted as B)
CCO[C@@H]1C[C@H]2C(=O)NC3(CCC3)C(=O)N(C)[C@@H](C3CCCC3)C(=O)N(C)[C@H](C(=O)N(C)C)CC(=O)N(C)[C@@H](CC3CCCC3)C(=O)N[C@@H]([C@@H](C)CC)C(=O)N(C)CC(=O)N(C)[C@H]3C/C=C\CCN(C3=O)[C@@H](CC3CCC(F)(F)CC3)C(=O)N(C)CC(=O)N[C@@H](CCc3cc(F)c(C(F)(F)F)c(F)c3)C(=O)N2C1 [PP1458]	18.2	A (a compound having 10 or more and less than 20 is denoted as A)	0.15	A (a compound having 10 or more and less than 20 is denoted as A)				
CCC(CC)[C@H]1C(=O)N(C)[C@H](C(=O)N(C)C)CC(=O)N(C)[C@@H](COC)C(=O)N[C@@H]([C@@H](C)CC)C(=O)N(C)CC(=O)N(C)[C@H]2C/C=C\CCN(C2=O)[C@@H](CC2CCCCC2)C(=O)N(C)CC(=O)N[C@@H](CCc2ccc(C(F)(F)F)c(OC)c2)C(=O)N2C[C@@H](C)C[C@H]2C(=O)NC2(CC(C)(C)C2)C(=O)N1C [PP2466]	170				A (a compound having 10 or more and less than 20 is denoted as A)	3.9	A (a compound having 10 or more and less than 20 is denoted as A)	
CC[C@H](C)[C@@H]1NC(=O)[C@H](CC)N(C)C(=O)C[C@@H](C(=O)N(C)C)N(C)C(=O)[C@H](C2CCCC2)N(C)C(=O)C2(CCCC2)NC(=O)[C@@H]2CCCN2C(=O)[C@H](CCc2cc(F)c(C(F)(F)F)c(F)c2)NC(=O)CN(C)C(=O)[C@H](Cc2ccc(C(F)(F)F)cc2)N2C[C@H](C)CC[C@@H](C2=O)N(C)C(=O)CN(C)C1=O [PP1382]	15.8	B (a compound having 3 or more and less than 10 is denoted as B)	0.068	B (a compound having 3 or more and less than 10 is denoted as B)				
CCC[C@H]1C(=O)N[C@@H]([C@@H](C)CC)C(=O)N(C2CC2)CC(=O)N(C)[C@H]2C/C=C\CCN(C2=O)[C@@H](Cc2ccc(C)cc2)C(=O)N(C)CC(=O)N[C@@H](CCc2ccc(C(F)(F)F)c(OC)c2)C(=O)N2C[C@@H](C)C[C@H]2C(=O)N(C)C2(CCC2)C(=O)N(C)[C@@H](C2CCCC2)C(=O)N(C)[C@H](C(=O)N(C)C)CC(=O)N1C [PP2366]	4.5				A (a compound having 10 or more and less than 20 is denoted as A)	0.048	A (a compound having 10 or more and less than 20 is denoted as A)	
CCO[C@@H]1C[C@H]2C(=O)NC3(CCC3)C(=O)N(C)[C@@H](C3CCCC3)C(=O)N(C)[C@H](C(=O)N(C)C)CC(=O)N(C)[C@@H](CC)C(=O)N[C@@H]([C@@H](C)CC)C(=O)N(C)CC(=O)N(C)[C@H]3CCCCCN(C3=O)[C@@H](Cc3ccc(C(F)(F)F)cc3)C(=O)N(C)CC(=O)N[C@@H](CCc3ccc4sccc4c3)C(=O)N2C1 [PP0892]	53.6				B (a compound having 3 or more and less than 10 is denoted as B)	0.33	B (a compound having 3 or more and less than 10 is denoted as B)	
CCOC[C@H]1C(=O)N[C@@H]([C@@H](C)CC)C(=O)N(C)CC(=O)N(C)[C@H]2C/C=C\CCN(C2=O)[C@@H](CC2CCCCC2)C(=O)N(C)CC(=O)N[C@@H](CCc2cc(F)c(C(F)(F)F)c(F)c2)C(=O)N2C[C@H](OCC)C[C@H]2C(=O)NC2(CC(C)(C)C2)C(=O)N(C)[C@@H](C(CC)CC)C(=O)N(C)[C@H](C(=O)N(C)C)CC(=O)N1C [PP2479]	26				AA (a compound having 20 or more is denoted as AA)	1.4	A (a compound having 10 or more and less than 20 is denoted as A)	
CC[C@H](C)[C@@H]1NC(=O)[C@H](CC)N(C)C(=O)C[C@@H](C(=O)N2CCOCC2)N(C)C(=O)[C@H](C2CCCC2)N(C)C(=O)C2(CCC2)NC(=O)[C@@H]2CCCN2C(=O)[C@H](CCc2ccc(C(F)(F)F)c(Cl)c2)NC(=O)CN(C)C(=O)[C@H](Cc2ccc(C(F)(F)F)cc2)N2C[C@H](C)CC[C@@H](C2=O)N(C)C(=O)CN(C)C1=O [PP1338]	35	B (a compound having 3 or more and less than 10 is denoted as B)	0.14	B (a compound having 3 or more and less than 10 is denoted as B)				
CC[C@H](C)[C@@H]1NC(=O)[C@H](COC)N(C)C(=O)C[C@@H](C(=O)N(CC)CC)N(C)C(=O)[C@H](C2CCCC2)N(C)C(=O)C2(CC(C)(C)C2)NC(=O)[C@@H]2C[C@H](C)CN2C(=O)[C@H](CCc2cc(F)c(C(F)(F)F)c(F)c2)NC(=O)CN(C)C(=O)[C@H](Cc2ccc(C)cc2)N2CC/C=C\C[C@@H](C2=O)N(C)C(=O)CN(C)C1=O [PP2455]	23.4				AA (a compound having 20 or more is denoted as AA)	0.32	A (a compound having 10 or more and less than 20 is denoted as A)	
CCCN1C(=O)CN(C)C(=O)CN(CC)C(=O)[C@H](CC)NC(=O)[C@H](CC(C)C)N(C)C(=O)C[C@@H](C(=O)N2CCOCC2)N(C)C(=O)[C@H](C2CCCC2)N(C)C(=O)C2(CCCC2)NC(=O)[C@@H]2CCCN2C(=O)[C@H](CCc2ccc(C(F)(F)F)c(Cl)c2)NC(=O)CN(C)C(=O)[C@@H]1Cc1ccc(C(F)(F)F)cc1 [PP0290] ([NMeL][Abu][NEtG][Sar][NPrPhe(4-CF3)][Sar][hPhe(3-Cl-4-CF3)]P[Ac5c][NMeGly(cPent)][NMeD]-Morpholide; lactam N-11)	149				B (a compound having 3 or more and less than 10 is denoted as B)		C (A compound having a KD ratio of 0.1 or more and less than 3 is denoted as C)	Kd [3, 7]: 4.8 nM
